Like-named read-outs stand apart in the source and are kept apart here.
What was measured:
alpha-glucosidase = target: T1, alpha-glucosidase (Saccharomyces cerevisiae, UniProt P53341); assay: biochemical; conditions: for Binding Affinity Exp: ΔGexp calculated from IC50, T=300 K
T1 construct: purchased Sigma-Aldrich Co. (Saint Louis, MO, USA)
Excerpt: The conditions followed that of our previous report with small modifications.

HepG2 cells = conditions: read-out: hepatoprotective activity EC50; cited from earlier work
[1] = isolated compounds, read-out: Alpha-glucosidase inhibition IC50 (isolated compounds)

T1 sequence (P53341 whole entry): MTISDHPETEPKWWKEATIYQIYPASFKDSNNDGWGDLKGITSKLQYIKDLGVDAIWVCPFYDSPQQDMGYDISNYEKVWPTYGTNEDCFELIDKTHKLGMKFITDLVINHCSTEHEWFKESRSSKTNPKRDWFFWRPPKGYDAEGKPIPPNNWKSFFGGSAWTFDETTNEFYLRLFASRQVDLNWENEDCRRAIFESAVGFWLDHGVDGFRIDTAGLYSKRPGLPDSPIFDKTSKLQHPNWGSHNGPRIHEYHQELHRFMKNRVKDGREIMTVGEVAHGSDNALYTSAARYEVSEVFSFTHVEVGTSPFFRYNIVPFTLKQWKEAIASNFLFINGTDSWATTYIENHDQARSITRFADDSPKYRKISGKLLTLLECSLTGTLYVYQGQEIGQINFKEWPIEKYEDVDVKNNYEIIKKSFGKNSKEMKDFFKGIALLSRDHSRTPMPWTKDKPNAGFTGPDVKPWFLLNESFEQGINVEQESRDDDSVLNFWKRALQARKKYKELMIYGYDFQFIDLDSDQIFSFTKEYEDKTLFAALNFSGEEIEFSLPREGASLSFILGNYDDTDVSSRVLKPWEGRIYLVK

| SMILES | IC50 (alpha-glucosidase; [1]) [µM] | Binding Affinity Exp (alpha-glucosidase) [kcal/mol] | IC50 (alpha-glucosidase) [µM] | EC50 (HepG2 cells) [µM] |
| --- | --- | --- | --- | --- |
| CC[C@H](CC[C@@H](C)[C@H]1CC[C@H]2[C@@H]3CC=C4C[C@@H](O)CC[C@]4(C)[C@H]3CC[C@]12C)C(C)C [DL1, β-sitosterol] | > 300 |  |  |  |
| CC[C@H](CC[C@@H](C)[C@H]1CC[C@H]2[C@@H]3CC=C4C[C@@H](O[C@@H]5O[C@H](CO)[C@@H](O)[C@H](O)[C@H]5O)CC[C@]4(C)[C@H]3CC[C@]12C)C(C)C [DL2, daucosterol] | > 300 |  |  |  |
| CC[C@H](CC[C@@H](C)[C@H]1CC[C@H]2[C@@H]3CC(O)C4=CC(=O)CC[C@]4(C)[C@H]3CC[C@]12C)C(C)C (stereo partly drawn) [DL3, 6-hydroxystigmast-4-en-3-one] | 177 ± 3.6 | -5.1 |  |  |
| CC(C)(C)c1ccc(C(=O)c2ccc(C(C)(C)C)cc2C(C)(C)C)c(C(C)(C)C)c1 [DL4, 2,2′,4,4′-tetra-tert-butylbenzophenone] | > 300 |  |  |  |
| CC1(C)C[C@H](O)C[C@@](C)(O)/C(O)=C\C1=O [DL5, chakyunglupulin B] | 82.2 ± 2.2 | -5.6 |  |  |
| O=c1c(-c2ccc(O)cc2)coc2cc(O)ccc12 [DL6, daidzein] |  |  | 66.9 ± 1.7 |  |
| COc1cc(-c2oc3cc(O)c(OC)c(O)c3c(=O)c2OC)ccc1O [DL8, jaceidin] | 282 ± 9.2 | -4.9 |  |  |
| COc1ccc(-c2oc3cc(O)c(OC)c(O)c3c(=O)c2OC)cc1OC [DL9, bonanzin] | > 300 |  |  |  |
| O=c1cc(-c2ccc(O)c(O)c2)oc2cc(O)cc(O)c12 [DL10, luteolin] | 67.1 ± 1.2 |  |  |  |
| O=c1c(O[C@@H]2O[C@H](CO)[C@@H](O)[C@H](O)[C@H]2O)c(-c2ccc(O)c(O)c2)oc2cc(O)cc(O)c12 [DL12, isoquercetin] |  |  | 99.8 ± 1.2 |  |
| COc1c(-c2ccc(O)c(O)c2)oc2cc(O)cc(O)c2c1=O [PA1, 3-O-methylquercetin] | > 300 |  |  |  |
| COc1cc(/C=C/C=O)ccc1O [PA4, coniferyl aldehyde] | 250 ± 11.4 |  |  |  |
| Cc1cc(O)c2c(c1)C(=O)c1cccc(O)c1C2=O [PA5, chrysophanol] |  | -5.5 | 98.2 ± 2.2 |  |
| COc1cc(/C=C/C(=O)NC(=O)c2ccc(O)c(OC)c2)ccc1O [PA6, tribulusimide D] | 76.2 ± 2.9 | -5.7 |  | 13.5 |
| O=Cc1ccc(CO)o1 [PA7, 5-hydroxymethylfurfural] | > 300 |  |  |  |
